From US20220177841A1, “EX VIVO METHODS FOR PRODUCING A T CELL THERAPEUTIC AND RELATED COMPOSITIONS AND METHODS” (Myst Therapeutics LLC, priority 2019, published 2022)
“Also recorded” adds a separate entry of the source. Peptide text beside a SMILES is read from it. * marks the point of attachment. Cbz = O=C(OCc1ccccc1)*; CH2F = FC*

Key:
[1] = system: cells processed from melanoma tumor fragments; test: Anti-CD3 stimulation on expansion of tumor-derived cells; assay type: cell-based, human
Method: Cells processed from melanoma tumor fragments as described in Examples 1 and 2, were cultured in the presence or absence of 50 ng/mL OKT3, a human anti-CD3 monoclonal antibody. Cell cultures were carried out to between 14 and 31 days in either a conventional 6-well plate or a gas permeable culture plate with RPMI or OpTmizer media. […] About 50% of cellular media was exchanged every other day beginning on the 5th day of culture as described previously. Cells were then counted using the NC-200 Automated Cell Counter (Chemometec).

[2] = system: T-cells from three healthy donors; test: Post-stimulation CD4+ and CD8+ activation markers, flow cytometry; assay type: cell-based, human; settings: 50 ng/mL OKT3, compared to culture in the absence of OKT3
Method: Specific markers of activation on the CD4+ and CD8+ cell populations were measured using flow cytometry over a time course of 3-48 hours. Specifically, the following markers were assessed: CD38 and CD39 (FIG. 12A and FIG. 13A), CD134 and CD137 (FIG. 12B and FIG. 13B), and CD69 and CD90 (FIG. 12C and FIG. 13C).

[3] = system: PBMC from two healthy donors; test: Checkpoint modulators and costimulatory agonist antibodies on T cell phenotype, flow cytometry; assay type: cell-based, human; settings: 0.5, 1, 10, or 20 μg/mL; 50 ng/ml OKT3; 48 hours
Method: Cells were then seeded into a 24-well gas permeable cell culture plate at a density of 5.0×10^5 cells/cm^2. Cells were activated for 48 hours using 50 ng/ml OKT3, a human anti-CD3 monoclonal antibody, and were additionally treated with agents as described below. Following 48 hours in culture, cells were analyzed for phenotype.
Cells were divided into 6 treatment groups, as follows: Ipilimumab (anti-CTLA4), Pembrolizumab (anti-PD1), Tavolixizumab (anti-TNFRSF4), Urelumab (anti-CD137), and Varlilumab (anti-CD27), as well as a no added agent control. For all test groups, cells in each treatment group were cultured in the presence of the monoclonal antibodies at 0.5, 1, 10, or 20 μg/mL.
None of the tested antibodies appeared to affect the memory differentiation state of the T cells. T cell phenotype was assessed for CD4+and CD8+cells independently via flow cytometry for markers of activation OX40, 41BB, CD107a, and PD1. Results are shown in FIG. 38 (CD3+), FIG. 39 (CD4+) and FIG. 40 (CD8+). Higher concentrations of Varlilumab, an agonist anti-CD27 antibody, promoted 41BB and CD107a expression on CD3+ T cells (FIG. 38B and 38C), CD4+ T cells (FIG. 39B and 39C) and CD8+ T cells (FIGS. 40B and 40C). Urelumab, an agonist CD137 receptor antibody, promoted 41BB expression on CD4 T cells (FIG. 39B) and CD8+ T cells (FIG. 40B). Pembrolizumab, an anti-PD-1 antagonist, decreased PD1 expression on CD4 T cells (FIG. 39D)

[4] = system: expanded human T cells from three healthy donors; test: T cell adjuvant high throughput screen, total viable CD3+ cell count; assay type: cell-based; settings: 6 days; for total viable CD3+ cell count compared with DMSO treatment control: 10 μg/mL antibodies, 25 μM Z-VAD-FMK, irrespective of activation status (with or without OKT3)
Method: Cells were expanded from PBMC derived from Ficoll gradient separation from three healthy donor's apheresis material. […] Cells were next seeded into gas permeable 100M culture vessels and expanded for 7-14 days to achieve a large bank of T cells, and cryopreserved. […] Half of wells were additionally supplemented with 50 ng/mL OKT3, a human anti-CD3 monoclonal antibody. In total, 15 test adjuvant agents were tested for their impact on cell viability in the presence and absence of anti-CD3 activation (see Table E3). Cells were cultured for 6 days total, including a 50% medium exchange on culture day 3, and monitored for total viable CD3+ cell count.
Total viable CD3+ cell count for cells grown in the absence and presence of OKT3 stimulation are shown in FIGS. 27A-C and FIGS. 28A-C, respectively. The results shown are for the following concentrations of adjuvant: 10 μg/mL for tested antibodies (Tavolixizumab, Oxelumab, Ipilimumab, Tocilizumab, Urelumab, Pembrolizumab, Varlilumab, anti-GITR MK-1248, anto-human FasL); 25 μM for Z-VAD-FMK pan-caspase inhibitor; 250 nM for HSP inhibitor NVP-HSP990; and 1000 IU/mL for cytokine (IL-7, IL-15 or IL-21).

[5] = system: PBMC from three healthy donors; test: T cell expansion with Fas ligand or caspase inhibition, anti-CD3 stimulation; assay type: cell-based, human; settings: OKT3 activation, caspase inhibitor 2 μM present continuously, replenished each media exchange
Method: (§1) Apoptotic inhibitors directed against Fas- and caspase-mediated pathways were assessed to determine effects on tumor reactive T cells during manufacturing. The studies were carried out in healthy donors, and thus, stimulation of the T cells were carried out with anti-CD3 (OKT3) or anti-CD3/anti-CD28 stimulation in order to mimic conditions present in the tumor microenvironment (TME). Constant activation signals present in the tumor microenvironment, as can be stimulated by anti-CD3 or anti-CD3/anti-CD28 activation can be detrimental to T cell growth. Cellular viability and projected cell numbers were used to compare the impact of modulation of apoptotic pathways in both a transient and a continuous activation assay, the latter of which more closely recapitulates the tumor microenvironment.
Immune Cell Serum Replacement (ThermoFisher) at 5%, and a final concentration of 2.0 mM of a L-alanyl-L-glutamine dipeptide form of glutamine (GlutaMAX Supplement; Thermofisher). Cells were then seeded into a 24-well gas permeable cell culture plate at a density of 2.14×10^5 cells/mL (7.5×10^5 cells/cm^2). […]
Cultures were maintained for at least 13 days with a 50% media exchange every other day beginning on culture day 2. Cell counts and viability were monitored every other day. […]

[6] = system: CRC tumor fragment and SCS cultures; test: Caspase inhibition in tumor processing, fragment or SCS cultures; assay type: cell-based, human
Method: Half of cultures contained media additionally supplemented with 2 μM of pan-caspase inhibitor Z-VAD-FMK which was replenished at each media exchange. Cultures were incubated at about 37° C. for a minimum of 18 days with a 50% medium exchange occurring every 2-3 days following culture day 5. Cell counts were performed on day 5 and at each medium exchange using the NC-200 Automated Cell Counter (ChemoMetec).

[7] = system: PBMC from two healthy donors; test: T cell expansion with Fas ligand or caspase inhibition, anti-CD3/anti-CD28 stimulation (transient or continuous activation); assay type: cell-based, human; settings: 2 μM
Method: as §1
Cells were then seeded into a 24-well gas permeable cell culture plate at a density of 1.5×10^5 cells/mL (5.0×10^5cells/cm^2).
Culture wells were assigned to one of two treatment groups, transient or continuous activation. For transient activation, anti-CD3/anti-CD28 paramagnetic beads (Dyanbeads™) were added to the culture media at a ratio of 1 bead per cell starting on culture day 0, and then were removed during media exchange on day 2. […]
Cell counts and viability were monitored every other day. […]

[8] = presence versus absence of 50 ng/mL OKT3, 14 to 31 days

“OKT3: human anti-CD3 monoclonal antibody” was tested, and the T cell expansion ([1]; 50 ng/mL OKT3, 14 to 31 days, 300 or 6000 IU/mL IL-2) was “supported T cell expansion”, the fold expansion ([1]; donor 6, all conditions, presence or absence of anti-CD3 stimulation) was 2-4 fold and the fold expansion [1, 8] was “largely similar; also recorded: did not substantially impact”. For the same compound, the total cell number [1, 8] was “largely similar; also recorded: did not substantially impact”, the “upregulation of activation markers (CD38, CD39, CD134, CD137, CD69, CD90) on CD8+ T cells” value ([2]; 48 hours following stimulation) was “all assessed markers were upregulated to some extent” and the “upregulation of activation markers (CD38, CD39, CD134, CD137, CD69, CD90) on CD4+ T cells” value ([2]; first 48 hours following stimulation) was “all assessed markers were upregulated to some extent”.
For “Urelumab: agonist CD137 receptor antibody”, the “41BB expression on CD4+ T cells” value [3] was “promoted” and the “41BB expression on CD8+ T cells” value [3] was “promoted”.
With Oxelumab: anti-OX40L antibody the “total viable CD3+ cell count compared with DMSO treatment control” value [4] was “consistently higher viable cell counts than the DMSO treatment control”.
With `COC(=O)C[C@H](NC(=O)[C@H](C)NC(=O)[C@@H](NC(=O)OCc1ccccc1)C(C)C)C(=O)CF` [Z-VAD-FMK, carbobenzoxy-valyl-alanyl-aspartyl-[O-methyl]-fluoromethylketone] (Cbz-Val-Ala-Asp(OMe)-CH2F) the “cell growth (total cell number)” value [5] was “greatest cell growth across donors”, the “cell growth (total cell number)” value ([5]; listed as caspase inhibition) was “superior growth” and the “outgrowth of T cells” value ([6]; SCS conditions) was “outgrowth of T cells was not observed”. For the same compound, the cell viability ([6]; SCS culture, 2 μM replenished at each media exchange) was “similarly high”, the cell viability ([6]; tumor fragment-derived culture, 2 μM replenished at each media exchange) was “high” and the “outgrowth of cells (fold expansion, total viable cells)” value ([6]; tumor fragment-derived culture, 2 μM replenished at each media exchange, minimum 18 days) was “outgrowth of cells was superior”. For the same compound, the “total viable cell number and viability versus other conditions” value ([7]; caspase inhibitor continuously) was “outperformed the other conditions”, the “total viable cell number and viability versus other conditions” value ([7]; caspase inhibitor transiently (day 0 only)) was “outperformed the other conditions” and the “total viable CD3+ cell count compared with DMSO treatment control” value [4] was “consistently higher viable cell counts than the DMSO treatment control”.
With Varlilumab: agonist anti-CD27 antibody the “41BB expression on CD3+ T cells” value [3] was “promoted”, the “41BB expression on CD4+ T cells” value [3] was “promoted” and the “41BB expression on CD8+ T cells” value [3] was “promoted”. The “CD107a expression on CD3+ T cells” value [3] was “promoted”, the “CD107a expression on CD4+ T cells” value [3] was “promoted” and the “CD107a expression on CD8+ T cells” value [3] was “promoted”.
In the case of Pembrolizumab: anti-PD1 antibody, the “PD1 expression on CD4 T cells” value [3] is reported as “decreased” and the “total viable CD3+ cell count compared with DMSO treatment control” value [4] is reported as “consistently higher viable cell counts than the DMSO treatment control”.
“IL-15: recombinant cytokine tested as T cell adjuvant” was tested, and the “dose response, cell number” value ([4]; 62.5 IU/ml-1000 IU/ml) was “cell number increased with increasing concentration”.
